The record followed here is US4820834A, “Benzodiazepine analogs” (priority 1987, dated 1989).

Read-outs that look alike come from different tables or passages of the source.

For assay [1], the target named is T1, Gastrin receptor (gastric glands) (Cavia porcellus, UniProt H0VZC5).
T1 construct: The washed guinea pig gastric glands prepared as above were resuspended; from tissue; host or cells: guinea pig gastric mucosal glands (male Hartley)
T1 sequence (H0VZC5 1-426): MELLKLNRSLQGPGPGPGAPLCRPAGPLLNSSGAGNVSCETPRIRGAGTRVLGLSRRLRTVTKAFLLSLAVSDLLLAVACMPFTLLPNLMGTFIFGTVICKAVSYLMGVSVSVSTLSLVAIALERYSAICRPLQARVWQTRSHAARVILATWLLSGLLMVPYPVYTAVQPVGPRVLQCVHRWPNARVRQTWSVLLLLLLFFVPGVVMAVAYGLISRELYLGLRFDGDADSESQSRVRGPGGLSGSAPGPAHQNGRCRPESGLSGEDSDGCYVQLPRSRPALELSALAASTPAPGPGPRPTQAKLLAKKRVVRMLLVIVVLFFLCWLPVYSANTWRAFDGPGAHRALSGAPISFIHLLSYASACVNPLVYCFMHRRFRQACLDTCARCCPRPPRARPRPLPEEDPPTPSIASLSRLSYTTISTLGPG
Briefly: Gastrin Receptor Binding in Guinea Pig Gastric Glands. Also on record: species or system guinea pig (male Hartley).

In assay [2] the target is T2, CCK receptor (brain, cerebral cortex) (Cavia porcellus, UniProt H0VZC5).
T2 construct: Cerebral cortex was dissected and used as a receptor source; from tissue; host or cells: guinea pig cerebral cortex membranes (male Hartley)
T2 sequence (H0VZC5 1-426): T1 sequence (H0VZC5 1-426)
Briefly: biochemical. It counts as binding, Male Hartley guinea pigs. To be noted: guinea pig cerebral cortex, ^125 I-CCK-33, 25° C., 2 hours. Here is the method: 2. CCK Recepto Binding (Brain)
CCK-33 was radiolabeled and the binding was Performed according to the description for the Pancreas method with modifications according to Saito et al., J. Neurochem.
Cerebral cortex was dissected and used as a receptor source. Each gram of fresh guinea pig brain tissue was homogenized in 10 ml of Tris/Trizma buffer with a Brinkman polytron PT-10. The homogenates were centrifuged at 42,000 g for 15 minutes. Pellets were resuspended in Tris Buffer, centrifuged as above and resuspended in 200 volumes of binding assay buffer (10 mM N-2-hydroxyethyl-piperazine-N'-2-ethane sulfonic acid (HEPES), 5 mM MgCl2, 0.25 mg/ml bacitracin, 1 mM ethylene glycol-bis-(β-aminoethylether-N,N'-tetraacetic acid) (EGTA), and 0.4% bovine serum albumin (BSA)). […] All assays were run in duplicate or triplicate. The reaction mixtures were incubated at 25° C. for 2 hours and centrifuged in a Beckman Microfuge (4 minutes) immediately after adding 1 ml of ice-cold incubation buffer. The supernatant was aspirated and discarded, pellets were counted with a Beckman gamma 5000.

The mark [3] stands for this setting: IC50 ^125 I-Gastrin Gastric Glands, 25° C., 30 minutes.

Usually IC50 stands for the midpoint of a concentration-inhibition curve. On to `O=C(NC1N=C(c2ccccc2F)c2ccccc2NC1=O)c1ccc([N+](=O)[O-])cc1` (racemic) [Example 106, 1,3-Dihydro-3-(RS)-(4-nitrophenlcarbonyl)amino-5-(2-fluorophenyl)-2H-1,4-benzodiazepin-2-one], for which the results for the IC50 in assay [1] (setting [3]) and in assay [2] (IC50 ^125 I-CCK Brain) were greater than 10 µM and greater than 50 µM, respectively. For `O=C(NCC1N=C(c2ccccc2F)c2ccccc2NC1=O)OCc1ccccc1` (racemic) [Example 66, 1,3-Dihydro-5-(2'-fluorophenyl)-3(RS)-(benzyloxycarbonyl)aminomethyl-2H-1,4-benzodiazepin-2-one], the IC50 is 7.4 µM in assay [1] (setting [3]) and 100 µM in assay [2] (IC50 ^125 I-CCK Brain). As for `O=C(NC1N=C(c2ccccc2)c2ccccc2NC1=O)c1cc2ccccc2[nH]1` (racemic) [Example 73, 3(RS)-1,3-Dihydro-(2-indolecarbonylamino)-5-phenyl-2H-1,4-benzodiazepin-2-one], the IC50 in assay [1] (setting [3]) was found to be 4 µM; in assay [2] (IC50 ^125 I-CCK Brain) it was 8 µM. Take `CN1C(=O)[C@@H](NC(=O)c2ccccc2Br)N=C(c2ccccc2F)c2ccccc21` [Example 161, 3(S)-(-)-3-(2-Bromobenzoylamino)-1,3-dihydro-5-(2-fluorophenyl)-1-methyl-2H-1,4-benzodiazepin-2-one]: the IC50 in assay [1] (^125 I-gastrin, 25° C., 30 minutes, read-out: IC50 ^125 I-Gastrin Gastric Glands) stood at 19 µM; in assay [2] (IC50 ^125 I-CCK Brain) it was 70 µM. With `O=C(NC1N=C(c2ccccc2F)c2ccccc2N(C(=O)c2ccc(Cl)cc2)C1=O)c1ccc(Cl)cc1` (racemic) [Example 177, 1-(4-Chlorophenyl)carbonyl-1,3-dihydro-5-(2-fluorophenyl)-3(RS)-(4-chlorophenyl)carbonylamino-2H-1,4-benzodiazepin-2-one], the IC50 stood at 0.55 µM in assay [1] (setting [3]) and 3.7 µM in assay [2] (IC50 ^125 I-CCK Brain).

For `O=C(O)CN1C(=O)C(NC(=O)c2ccc(Cl)cc2)N=C(c2ccccc2F)c2ccccc21` (racemic) [Example 132, 1-Carboxymethyl-1,3-dihydro-3-(RS)-(4-chlorophenyl-carbonyl)amino-5-(2-fluorophenyl)-2H-1,4-benzodiazepin-2-one], the IC50 in assay [1] (setting [3]) is 8.2 µM; in assay [2] (IC50 ^125 I-CCK Brain), greater than 100 µM. Turning to `O=C(NC1N=C(c2ccccc2F)c2ccccc2NC1=O)c1cc2ccccc2o1` (racemic) [Example 128, 1,3-Dihydro-5-(2-fluorophenyl)-3-(RS)-(2-benzofurancarbonylamino)-2H-1,4-benzodiazepin-2-one], the 50% inhibitory concentration (IC50) in assay [1] (read-out: IC50 ^125 I-Gastrin Gastric Glands, 25° C., 30 minutes) was found to be 11 µM; in assay [2] (read-out: IC50 ^125 I-CCK Brain), 32 µM. Compound `CC(C)C[C@@H](NC(=O)OC(C)(C)C)C(=O)N1CC(C[C@H]2N=C(c3ccccc3F)c3ccccc3NC2=O)c2ccccc21` (stereo partly drawn) [Example 22, 1,3-Dihydro-5-(2-fluorophenyl)-3(R)-[3'-β-(1'-t-Boc-D-leucyl)-indolenyl]methyl-2H-1,4-benzodiazepin-2-one] showed a concentration for half-maximal inhibition (IC50) in assay [2] (IC50 ^125 I-CCK Brain) greater than 100 µM. Turning to `O=C(NC1N=C(c2ccccc2F)c2ccccc2NC1=O)c1ccccc1` (racemic) [Example 173, 1,3-Dihydro-5-(2-fluorophenyl)-3(RS)-phenylcarbonylamino-2H-1,4-benzodiazepin-2-one], the IC50 in assay [1] (setting [3]) was 28 µM; in assay [2] (IC50 ^125 I-CCK Brain) it was greater than 40 µM.

For `O=C(NC1N=C(c2ccccc2F)c2ccccc2NC1=O)c1cc2ccccc2[nH]1` (racemic) [Example 105, 1,3-Dihydro-5-(2-fluorophenyl)-3-(RS)-(2-indolecarbonylamino)-2H-1,4-benzodiazeoin-2-one], the IC50 turned out to be 4.6 µM in assay [1] (setting [3]) and 3 µM in assay [2] (IC50 ^125 I-CCK Brain). Take `CN1C(=O)C(NC(=O)c2cc3ccccc3n2C)N=C(c2ccccc2F)c2ccccc21` (racemic) [Example 81b, 1,3-Dihydro-5-(2-fluorophenyl)-1-methyl-3(RS)-[2'-(1-methylindole)carbonylamino]-2H-1,4-benzodiazepin-2-one]: the results for the 50% inhibitory concentration (IC50) in assay [1] (setting [3]) and in assay [2] (IC50 ^125 I-CCK Brain) were 1.6 µM and 1 µM, respectively. In assay [2] (IC50 ^125 I-CCK Brain), `CC(C)C[C@H](NC(=O)OC(C)(C)C)C(=O)N1CC(C[C@H]2N=C(c3ccccc3F)c3ccccc3NC2=O)c2ccccc21` (stereo partly drawn) [Example 23, 1,3-Dihydro-5-(2-fluorophenyl)-3(R)-[3'-α-(1'-t-Boc-L-leucyl)-indolenyl]methyl-2H-1,4-benzodiazepin-2-one] had an IC50 greater than 100 µM.
